Source: US6358967B1, “Ergoline amine derivatives with blood pressure lowering effect” (priority 1998, dated 2002)
Structures can show the parent of a compound that is named as a salt.

How the values were obtained:
[1] = test system: normotensive Wistar rats after pretreatment with Ecolid; assay: Blood pressure testing after blockade of autonomic nerve tracts with Ecolid; type: in vivo, rat; conditions: Table 2; for Effect pressure/duration: duration: assessment class of duration; for Effect pressure/duration: duration / Effect pressure/duration: pressure: after Ecolid; for Effect pressure/duration: pressure: assessment class of pressure fall; for Heart rate: change shown as arrow; for Diastol. pressure / Mean pressure / Systol. pressure: effect (fall) on arterial blood pressure, Wistar rats pretreated with Ecolid 0.5 mg/kg i.v., test substance 0.5 mg/kg i.v.
Text: Ecolid is a ganglionic blocker which competitively blocks the postsynaptic cholinergic (nicotinergic) receptors in the autonomic ganglia. This interrupts neurotransmission in the ganglia in both the para-sympathetic and sympathetic regions of the autonomic nervous system. The consequence thereof is, inter alia, a fall in blood pressure. It is possible in this way to differentiate central and peripheral (i.e. direct points of action on the smooth muscles) effects.
The experimental animals used were male Wistar rats with a BW of 300-450 g. The rats are anesthetized immediately before the experiment with 70 mg/kg inactin i.v. PE tubes are tied into the carotid artery and femoral vein.
(§1) To maintain the blood pressure and to prevent formation of thrombi in the PE tubes of the blood vessels, each hour 2.5 ml of heparinized 0.9% strength NaCl solution are infused through the femoral vein and 1.2 ml through the carotid artery.
Before testing the ergoline derivatives, the experimental animals were treated with Ecolid (dose: 0.5 mg/kg, i.v.).
(§2) The ergoline derivatives are administered i.v. through the femoral vein as 5 percent EtOH/NaCl (0.9%) solution, 1 ml/kg in a dosage of 0.5 mg/kg test substance.
The time stated in the table corresponds to the period between administration of Ecolid and injection of the test substances.

normotensive Wistar rats = assay: Invasive blood pressure measurement in anesthetized rats, i.v. administration; type: in vivo, rat
Method: Male Wistar rats with a body weight (BW) of 300-450 g were used as experimental animals. The rats are anesthetized immediately before the experiment with 50 mg/kg pentobarbital Na intraperitoneally (i.p.) or 70 mg/kg inactin i.v. PE tubes are tied into the carotid artery and femoral vein.
as §1
The arterial blood pressure is measured invasively using a PONEMAH hemodynamic analyzer (HSE, March, Germany). Via the tube in the carotid artery, the arterial blood pressure is mechanoelectrically converted in a Statham transducer (ISOTEC), amplified in a Plugsys (DBA module, type 660), digitized in an A/D converter and input into the PC memory over defined time intervals. The values in the memory are then treated with an adapted algorithm in order to establish the blood pressure parameters to be calculated for heart rate, systolic, diastolic and mean blood pressure.
as §2

[2] = rats pretreated with Ecolid, 0.5 mg/kg i.v.
[3] = assessment class of duration, 0.5 mg/kg i.v., Table 1.1
[4] = assessment class of pressure fall, 0.5 mg/kg i.v., Table 1.1
[5] = change shown as arrow, Wistar rats, 0.5 mg/kg i.v., Table 1.1
[6] = duration of blood pressure effect, Wistar rats, 0.5 mg/kg i.v., Table 1.1
[7] = effect (fall) on arterial blood pressure, anesthetized Wistar rats, 0.5 mg/kg i.v., Table 1.1
[8] = assessment class of duration, 0.5 mg/kg i.v., Table 1.2
[9] = assessment class of pressure fall, 0.5 mg/kg i.v., Table 1.2
[10] = change shown as arrow, Wistar rats, 0.5 mg/kg i.v., Table 1.2
[11] = duration of blood pressure effect, 0.5 mg/kg i.v., Table 1.2
[12] = effect (fall) on arterial blood pressure, Wistar rats, 0.5 mg/kg i.v., Table 1.2

Compound | Effect pressure/duration: duration (normotensive Wistar rats; [3]) | Effect pressure/duration: pressure (normotensive Wistar rats; [4]) | Heart rate (normotensive Wistar rats; [5]) | Duration (normotensive Wistar rats; [6]) | Diastol. pressure (normotensive Wistar rats; [7]) | Mean pressure (normotensive Wistar rats; [7]) | Systol. pressure (normotensive Wistar rats; [7]) | further results
CN1CC(CNC(=O)c2ccc(C(=O)NCc3cccc(CN)c3)cc2)CC2c3cccc4[nH]cc(c34)CC21.O=C(O)C(F)(F)F.O=C(O)C(F)(F)F (centres unmarked) [Substance 9703126] | ↓↓↓/↓↓↓ (>30 min) | ↓↓↓/↓↓↓ (>30%) | → | >60 min | 63.0% | 60.0% | 55.0% | Effect pressure/duration: duration ([1]; 0.5 mg/kg i.v.): ↓↓↓/↓↓↓ (> 30 min); Effect pressure/duration: pressure ([1]; 0.5 mg/kg i.v.): ↓↓↓/↓↓↓ (> 30%); Heart rate [1, 2]: →; Diastol. pressure [1]: 48.7%; Mean pressure [1]: 43.7%; Systol. pressure [1]: 36.4%; Duration [1, 2]: >120 min
CN1CC(CNC(=O)c2ccc(C(=O)NC3CCC(N)CC3)cc2)CC2c3cccc4[nH]cc(c34)CC21.O=C(O)C(F)(F)F.O=C(O)C(F)(F)F (centres unmarked) [Substance 9703112] | ↓↓/↓↓ (up to 30 min) | ↓↓/↓↓ (to 30%) | → | 18 min | 31.7% | 29.2% | 25.2% | –
CN1C[C@H](C(N)=O)CC2c3cccc4[nH]cc(c34)C[C@H]21 (some centres unmarked) [Dihydrolysergamide, reference compound] | (↓)/(↓) (< 5 min) | (↓)/(↓) (to 10%) | → | 5 min | 7.1% | 8.0% | 8.0% | –
CN1CC(CNC(=O)c2c(F)c(F)c(F)c(F)c2C(=O)NC2CCC(N)CC2)CC2c3cccc4[nH]cc(c34)CC21.O=C(O)C(F)(F)F.O=C(O)C(F)(F)F (centres unmarked) [Substance 9703156] | – | – | – | – | – | – | – | Effect pressure/duration: duration (normotensive Wistar rats; [8]): ↓↓ (up to 30 min); Effect pressure/duration: pressure (normotensive Wistar rats; [9]): ↓↓↓ (> 30%); Heart rate (normotensive Wistar rats; [10]): →; Duration (normotensive Wistar rats; [11]): 13 min; Diastol. pressure (normotensive Wistar rats; [12]): 43.4%; Mean pressure (normotensive Wistar rats; [12]): 38.6%; Systol. pressure (normotensive Wistar rats; [12]): 33.4%
O=C(O)C(F)(F)F [TFA (equimolar), trifluoroacetic acid, reference compound] | (↓)/(↓) (< 5 min) | (↓)/(↓) (to 10%) | → | >1 min | 5.1% | 4.6% | 4.3% | –
C[N+](C)(C)CC[N+]1(C)Cc2c(Cl)c(Cl)c(Cl)c(Cl)c2C1.[Cl-].[Cl-] [Ecolid, reference compound] | – | – | – | – | – | – | – | Effect pressure/duration: duration ([1]; 0.5 mg/kg i.v.): ↓↓↓/↓↓↓ (> 30 min); Effect pressure/duration: pressure ([1]; 0.5 mg/kg i.v.): ↓↓↓/↓↓↓ (> 30%); Heart rate [1, 2]: →; Diastol. pressure [1]: 54.7%; Mean pressure [1]: 50.4%; Systol. pressure [1]: 52.6%
CC(C)[C@H]1C(=O)N2CCC[C@H]2[C@]2(O)O[C@](NC(=O)[C@@H]3C[C@@H]4c5cccc6[nH]cc(c56)C[C@H]4N(C)C3)(C(C)C)C(=O)N12 [Dihydroergocornine, reference compound] | (↓) (< 5 min) | ’ | → | 3 min | 4.3% | 3.3% | 5.0% | –
CN1CC(CNC(=O)CCCCC(=O)NCc2cccc(CN)c2)CC2c3cccc4[nH]cc(c34)CC21.O=C(O)C(F)(F)F.O=C(O)C(F)(F)F (centres unmarked) [Substance 9703123] | – | – | – | – | – | – | – | Diastol. pressure (normotensive Wistar rats; rat, in vivo, iv, 0.5 mg/kg): 44.3%; Duration (normotensive Wistar rats; rat, in vivo, iv, 0.5 mg/kg): 7 min; Effect pressure/duration: duration (normotensive Wistar rats; rat, in vivo, iv, 0.5 mg/kg): ↓↓↓/↓ (key: (↓): < 5 min; ↓: up to 10 min; ↓↓: up to 30 min; ↓↓↓: >30 min); Effect pressure/duration: pressure (normotensive Wistar rats; rat, in vivo, iv, 0.5 mg/kg): ↓↓↓/↓ (key: →: no effect to 5%; (↓): to 10%; ↓: to 20%; ↓↓: to 30%; ↓↓↓: >30%); Heart rate (normotensive Wistar rats; rat, in vivo, iv, 0.5 mg/kg): →; Mean pressure (normotensive Wistar rats; rat, in vivo, iv, 0.5 mg/kg): 43.4%; Systol. pressure (normotensive Wistar rats; rat, in vivo, iv, 0.5 mg/kg): 38.0%
CN1CC(CNC(=O)c2ccc(SSc3ccc(C(=O)NC4CCC(N)CC4)cn3)nc2)CC2c3cccc4[nH]cc(c34)CC21.O=C(O)C(F)(F)F.O=C(O)C(F)(F)F (centres unmarked) [Substance 9703155] | – | – | – | – | – | – | – | Effect pressure/duration: duration (normotensive Wistar rats; [8]): ↓↓↓ (> 30 min); Effect pressure/duration: pressure (normotensive Wistar rats; [9]): ↓↓ (to 30%); Heart rate (normotensive Wistar rats; [10]): →; Duration (normotensive Wistar rats; [11]): ca 60 min; Diastol. pressure (normotensive Wistar rats; [12]): 25.9%; Mean pressure (normotensive Wistar rats; [12]): 26.9%; Systol. pressure (normotensive Wistar rats; [12]): 24.7%
Cc1nc(C)c(C(=O)NC2CCC(N)CC2)cc1C(=O)NCC1CC2c3cccc4[nH]cc(c34)CC2N(C)C1.O=C(O)C(F)(F)F.O=C(O)C(F)(F)F (centres unmarked) [Substance 9703137] | ↓↓↓/↓↓↓ (>30 min) | ↓↓↓/↓↓↓ (>30%) | → | ca 95 min | 64.8% | 60.2% | 56.5% | –
CN1CC(CNC(=O)c2ccc(C(=O)NCC3CCCC(CN)C3)cc2)CC2c3cccc4[nH]cc(c34)CC21.O=C(O)C(F)(F)F.O=C(O)C(F)(F)F (mixture of isomers) [Substance 9703127] | ↓↓/↓↓ (up to 30 min) | ↓↓/↓↓ (to 30%) | → | >25 min | 29.0% | 27.2% | 24.8% | –
CN1CC(CNC(=O)CCCCC(=O)NC2CCC(N)CC2)CC2c3cccc4[nH]cc(c34)CC21.O=C(O)C(F)(F)F.O=C(O)C(F)(F)F (centres unmarked) [Substance 9703114] | – | – | – | – | – | – | – | Diastol. pressure (normotensive Wistar rats; rat, in vivo, iv, 0.5 mg/kg): 20.7%; Duration (normotensive Wistar rats; rat, in vivo, iv, 0.5 mg/kg): 40 min; Effect pressure/duration: duration (normotensive Wistar rats; rat, in vivo, iv, 0.5 mg/kg): ↓↓/↓↓↓ (key: (↓): < 5 min; ↓: up to 10 min; ↓↓: up to 30 min; ↓↓↓: >30 min); Effect pressure/duration: pressure (normotensive Wistar rats; rat, in vivo, iv, 0.5 mg/kg): ↓↓/↓↓↓ (key: →: no effect to 5%; (↓): to 10%; ↓: to 20%; ↓↓: to 30%; ↓↓↓: >30%); Heart rate (normotensive Wistar rats; rat, in vivo, iv, 0.5 mg/kg): →; Mean pressure (normotensive Wistar rats; rat, in vivo, iv, 0.5 mg/kg): 20.3%; Systol. pressure (normotensive Wistar rats; rat, in vivo, iv, 0.5 mg/kg): 18.8%
CN1CC(CNC(=O)C(F)(F)C(F)(F)C(=O)NC2CCC(N)CC2)CC2c3cccc4[nH]cc(c34)CC21.O=C(O)C(F)(F)F.O=C(O)C(F)(F)F (centres unmarked) [Substance 9703157] | – | – | – | – | – | – | – | Effect pressure/duration: duration (normotensive Wistar rats; [8]): ↓↓ (up to 30 min); Effect pressure/duration: pressure (normotensive Wistar rats; [9]): ↓↓↓ (> 30%); Heart rate (normotensive Wistar rats; [10]): →; Duration (normotensive Wistar rats; [11]): 30 min; Diastol. pressure (normotensive Wistar rats; [12]): 49.6%; Mean pressure (normotensive Wistar rats; [12]): 48.8%; Systol. pressure (normotensive Wistar rats; [12]): 46.6%
Nc1cc(N2CCCCC2)nc(N)[n+]1[O-] [Minoxidil, reference compound] | ↓/↓ (up to 10 min) | ↓/↓ (to 20%) | → | ca 10 min | 8.1% | 7.1% | 6.6% | –
CN1C[C@H](CN)C[C@@H]2c3cccc4[nH]cc(c34)C[C@H]21 [8β-Aminomethyl-6-methylergoline, reference compound] | ↓↓ (up to 30 min) | ↓ (to 20%) | → | 30 min | 14.3% | 15.3% | 16.4% | –
CN1CC(CNC(=O)C2CCC(C(=O)NCCCN3CCN(CCCN)CC3)CC2)CC2c3cccc4[nH]cc(c34)CC21.O=C(O)C(F)(F)F.O=C(O)C(F)(F)F.O=C(O)C(F)(F)F.O=C(O)C(F)(F)F (mixture of isomers) [Substance 9703133] | – | – | – | – | – | – | – | Diastol. pressure (normotensive Wistar rats; rat, in vivo, iv, 0.5 mg/kg): 50.0%; Duration (normotensive Wistar rats; rat, in vivo, iv, 0.5 mg/kg): ca 60 min; Effect pressure/duration: duration (normotensive Wistar rats; rat, in vivo, iv, 0.5 mg/kg): ↓↓↓/↓↓↓ (key: (↓): < 5 min; ↓: up to 10 min; ↓↓: up to 30 min; ↓↓↓: >30 min); Effect pressure/duration: pressure (normotensive Wistar rats; rat, in vivo, iv, 0.5 mg/kg): ↓↓↓/↓↓↓ (key: →: no effect to 5%; (↓): to 10%; ↓: to 20%; ↓↓: to 30%; ↓↓↓: >30%); Heart rate (normotensive Wistar rats; rat, in vivo, iv, 0.5 mg/kg): ↑; Mean pressure (normotensive Wistar rats; rat, in vivo, iv, 0.5 mg/kg): 45.4%; Systol. pressure (normotensive Wistar rats; rat, in vivo, iv, 0.5 mg/kg): 48.4%
CN1CC(CNC(=O)c2ccc(C(=O)NCCCN3CCN(CCCN)CC3)cc2)CC2c3cccc4[nH]cc(c34)CC21.O=C(O)C(F)(F)F.O=C(O)C(F)(F)F.O=C(O)C(F)(F)F.O=C(O)C(F)(F)F (centres unmarked) [Substance 9703125] | – | – | – | – | – | – | – | Diastol. pressure (normotensive Wistar rats; rat, in vivo, iv, 0.5 mg/kg): 14.0%; Duration (normotensive Wistar rats; rat, in vivo, iv, 0.5 mg/kg): 90 min; Effect pressure/duration: duration (normotensive Wistar rats; rat, in vivo, iv, 0.5 mg/kg): ↓/↓↓↓ (key: (↓): < 5 min; ↓: up to 10 min; ↓↓: up to 30 min; ↓↓↓: >30 min); Effect pressure/duration: pressure (normotensive Wistar rats; rat, in vivo, iv, 0.5 mg/kg): ↓/↓↓↓ (key: →: no effect to 5%; (↓): to 10%; ↓: to 20%; ↓↓: to 30%; ↓↓↓: >30%); Heart rate (normotensive Wistar rats; rat, in vivo, iv, 0.5 mg/kg): →; Mean pressure (normotensive Wistar rats; rat, in vivo, iv, 0.5 mg/kg): 13.7%; Systol. pressure (normotensive Wistar rats; rat, in vivo, iv, 0.5 mg/kg): 13.1%
